What all share (format): cell-based
The subject of assay [1] is Muscle bind like protein 1 (MBNL1). The assay can be described thus: MBNL1 quantification in human dermal fibroblasts by immunofluorescence (Example 8). The note with it: HDF, 1, 0.5 and 0.01 mg/ml, 24 hours, nuclear fluorescence normalized by nuclei. As to the method: MBNL1 induction by the peptides of the invention is evaluated by an Immunofluorescence assay. The aim of this study is to investigate the capacity of peptide candidates to increase MBNL1 in human dermal fibroblasts (HDF).
HDF (Cascade) are seeded in 96-well plates at a density of 8×10^3 cells/well in Fibroblast Growth Medium (Promocell). After 48 hours incubation, medium is removed and fresh medium with 1, 0.5 and 0.01 mg/ml of test items is added. Treatment is continued for 24 hours and non-treated cells are used as basal control. After 24 hours of treatment, an immunofluorescence is performed. Cells are fixed 15 minutes with 4% Paraformaldehide (Sigma), permeated 15 minutes with 1% Triton X-100 (Sigma) and then blocked with 5% Bovine Serum Albumin (Sigma). Next, primary antibody Anti-MBNL1 Rabbit (Sigma) is added and incubated for 2 hours. After that, secondary antibody Alexa Fluor™ 488 goat anti-rabbit IgG (Life Technologies) is added and incubated for 1 hour. To stain nuclei, Hoechst (Life Technologies) is added and incubated for 10 minutes. Finally, MBNL1 cell nuclei fluorescence intensity and nuclei number are measured by Operetta™ (Perkin Elmer). Fluorescence is normalized by cell nuclei and results are represented respect to basal control.

Assay [2] has the same test system. The assay can be described thus: MBNL1 quantification in human skeletal muscle cells by TR-FRET (Examples 7, 19). The note with it: hSkMc (Innoprot), 0.5 mg/ml, 48 hours, normalized to total protein. On the procedure:
MBNL1 induction by the peptides of the invention is evaluated by a Time resolved fluorescence resonance energy transfer (TR-FRET) assay. The aim of this study is to investigate the capacity of peptide candidates to increase MBNL1 in human skeletal muscle cells (hSkMc).
hSkMc (Innoprot) are seeded in 12-well plates at a density of 1.5×10^4 cells/well in Skeletal Muscle Cell Growth Medium (Promocell). After 72 hours incubation, medium is removed and replaced with Skeletal Muscle Cell Differentiation Medium (Promocell). 48 hours after beginning cell differentiation, fresh differentiation medium with 0.5 mg/ml of test items is added. Treatment is continued for 48 hours and non-treated cells are used as basal control. After 48 hours of treatment, cell medium is removed and added cell lysis buffer to wells. Immediately, plates are kept at −80° C. in order to improve protein extraction during the defrosting process. After 72 hours, cells are lysated by shaking the plates in an orbital rotor at room temperature for 45 minutes. Next, cell lysates are collected and assayed to quantify the level of MBNL1 protein and total protein concentration.
MBNL1 protein levels measurement is performed with Human MBNL1 Assay Kit (Cisbio) according to the manufacturer's protocol. Briefly, the kit is used to perform a TR-FRET for MBNL1 quantification. The protein is detected with the antibodies provided in the kit and quantified by a fluorescence measurement. The quantification is carried out by using a microplate reader (ClarioStar, BMG) set to 665 nm and 620 nm.
Total protein concentration of cell lysate is determined by using Pierce BCA Protein Assay Kit™ (Thermo Scientific) according to manufacturer's protocol. In brief, after adding Working Reagent to the samples and the standards, the samples are incubated. Afterwards, color change is measured with an absorbance microplate reader (Clariostar™, BMG) at 562 nm. The total protein amount is used to normalize the level of MBNL1 protein concentration obtained by the TR-FRET test in the samples.
Different peptides of the invention are tested as disclosed in Example 7 at 0.5 mg/mL.

Assay [3] concerns human subcutaneous pre-adipocytes. The assay can be described thus: Lipid accumulation in human subcutaneous pre-adipocytes, Adipored staining (Example 13). The note with it: coculture of young and old pre-adipocytes, 0.01 mg/ml, 12 days. The source says:
The aim of this study is to investigate the capacity of peptide candidates to induce lipid accumulation in human subcutaneous adipocytes, and therefore prevent adipocytes senescence. Measurement of lipid accumulation in a coculture of young and old adipose cells indirectly evaluates the inhibition of senescence-associated secretory phenotype (SASP). A pool of old adipose cells has a higher number of senescent cells. When cocultured with young cells, lipid accumulation observed is below the theoretically expected levels due to senescence induction effect of SASP on young adipocytes.
Induction of lipid accumulation by the peptides of the invention is evaluated by lipid fluorescent staining with Adipored® Assay Reagent. Human subcutaneous pre-adipocytes (donors, Cell applications) cells are cocultured in 96-well plates at a density of 4×10^3 cells/well each age in Human Preadipocyte Growth Medium (Sigma). Monoculture of each age are seeded at a density of 8×10^3 cells/well as age lipid accumulation controls. After 24 hours incubation, differentiation of pre-adipocytes into adipocytes is induced by changing medium to fresh Human Preadipocyte Differentiation Medium (Promocell). […] Finally, fluorescence intensity and nuclei number are measured by Operetta™ (Perkin Elmer). Fluorescence is normalized by cell nuclei and results are represented respect to cocultured basal control.

Assay [4] concerns human muscular skeletal cells (hSKMC). The assay can be described thus: Prevention of TNF-α induced muscle mass loss in human skeletal muscle cells, immunofluorescence (Example 9). The note with it: 0.5 mg/ml with 20 ng/ml TNFα, 48 hours, myotube diameter threshold 20 μm. On the procedure:
Myosin heavy chain (MHyC) is used as a morphologic marker of differentiated myotubes allowing the measurement of their diameter, and therefore knowing their degree of mass loss. Tumor necrosis factor α (TNF-α) has been described in the literature as a muscle mass loss inductor.
Muscle mass loss prevention by the peptides of the invention is evaluated by an immunofluorescence assay. The aim of this study is to investigate the capacity of peptide candidates to prevent muscular mass loss in presence of TNF-α in human muscular skeletal cells (hSKMC).
hSKMC (Tebu-Bio) are seeded in 96-well plates at a density of 1.5×10^4 cells/well in Skeletal Muscle Cell Growth Medium (Promocell). After 24 hours incubation, medium is replaced with Skeletal Muscle Cell Differentiation Medium (Promocell) and cells are differentiated for 6 days. After this, fresh differentiation medium with 0.5 mg/ml of test items and 20 ng/ml of TNFα (Sigma) is added. Treatment is continued for 48 hours and non-treated cells are used as basal control and 20 ng/ml TNFα treated cells are used as a muscle mass loss control. […] Finally, myotube diameter is determined by imaging MHyC staining by Operetta™ (Perkin Elmer). Percentage of mass loss is automatically calculated with Harmony™ (Perkin Elmer) software by classifying myotubes according to their diameter using an atrophic threshold of 20 μm. […]

In the case of “Ac-Asp-Val-Tyr-Lys-NH2 (Ac-DVYK-NH2) [PEP1]”, the “MBNL1 levels compared to the basal control” value in assay [1] and in assay [2] was “increase MBNL1 levels” throughout. Further, the “lipid accumulation compared to basal control and old control” value in assay [3] is “increase lipid accumulation in adipocytes”. Further, the “muscle mass loss compared to TNF-α treatment (prevention)” value in assay [4] was “prevent mass loss”.

In the case of “H-Ala-Leu-Lys-Pro-Asn-Thr-NH2 (H-ALKPNT-NH2) [PEP2]”, the “MBNL1 levels compared to the basal control” value in assay [1] and in assay [2] was “increase MBNL1 levels” throughout. The “lipid accumulation compared to basal control and old control” value in assay [3] is on record as “increase lipid accumulation in adipocytes”. The “muscle mass loss compared to TNF-α treatment (prevention)” value in assay [4] is listed as “prevent mass loss”.

Source of the values: US12419824B2, “Compounds useful for the treatment and/or care of the skin, hair, nails and/or mucous membranes” (Lubrizol Advanced Materials, Inc., priority 2019, dated 2025).
